Assay results published in patent US9051564B2, “Compositions for and methods of identifying antigens” (President and Fellows of Harvard College, priority 2006, dated 2015).
Entries after “also recorded” stand apart in the source; their conditions may differ.

B1: Cta1: Chlamydia-specific T cell antigen-1, protein encoded by C. trachomatis ORF CT788; predicted periplasmic protein of unknown function (protein, listed as Chlamydia trachomatis)
chain: MNSGMFPFTFFLLYICLGMLTAYLANKKNRNLIGWFLAGMFFGIFAIIFLLILPPLPSSTQDNRSMDQQDSEEFLLQNTLEDSEIISIPDTMNQIAIDTEKWFYLNKDYTNVGPISIVQLTAFLKECKHSPEKGIDPQELWVWKKGMPNWEKVKNIPELSGTVKDE

system: T cell clone NR9.2; assay: Screen of E. coli clones expressing C. trachomatis ORFs, cultured with BMMs and T cell clone NR9.2, IFNγ ELISA; format: cell-based, mouse; conditions: 894 ORFs screened; E. coli expressing the protein
Description: FIG. 15 is an image showing clones of E. coli expressing individual C. trachomatis ORFs cultured with BMMs and then incubated with the T cell clone NR9.2. […] E. coli expressing Cta1 (encoded by ORF CT788) induced NR9.2 to secrete high levels of IFNγ (>370 ng/ml) whereas E. coli expressing other Chlamydia proteins in the library induced only background levels of IFNγ secretion (<26 ng/ml). The well indicated as Cta1 and ELISA Standards are yellow; other wells are colorless. […] ELISA standards corresponding to high amounts of IFNγ are indicated.
Chlamydia specific CD4+ T cell clone. To identify a Chlamydia-specific TCR for the creation of TCR transgenic mice, we generated a Chlamydia-specific CD4^+ T cell clone named NR9.2. The clone specifically secreted IFNγ when co-cultured with Chlamydia-infected macrophages in an intracellular cytokine staining assay (FIG. 13A). […] A library of proteins expressed by the C. trachomatis ORFs contained in the genome database was screened. […] CT788 was annotated in the published C. trachomatis genome as a predicted periplasmic protein of unknown function (Stephens et al., Science 282:754-759, 1998), and its sequence shares little homology with proteins outside of the Chlamydia genus. CT788 was designated Cta1 (Chlamydia-specific T cell antigen-1).
Identification of the T cell antigen Cta1. […]

For B1, which “stimulation of NR9.2 to secrete IFNγ (in words)” value is on record?
Its value is “stimulated NR9.2 to secrete significant levels of IFNγ”.

same assay, conditions: E. coli expressing the ORF, cultured with BMMs then NR9.2; supernatant IFNγ ELISA

Which “IFNγ secreted by NR9.2” value does the source give for B1 here?
The value was > 370 ng/mL.

system: T cell clone NR9.2; assay: Epitope mapping: overlapping synthetic 20-mer Cta1 peptides tested for stimulating NR9.2 to secrete IFNγ (ELISA); format: cell-based, mouse; conditions: T cell line NR9.2, synthetic peptides at 25 μM
Excerpt: FIG. 22 is a graph showing T cell clone NR9.2 recognizes the novel T cell antigen Cta1133-152 (SEQ ID NO:2). The antigenic peptide from Cta1 was mapped by testing overlapping 20-mer synthetic peptides for their ability to stimulate NR9.2 to secrete IFNγ. […] Shown below is the protein sequence of Cta1 (SEQ ID NO:1) with […] (SEQ ID NO:2) underlined.
To map more closely the epitope within Cta1 recognized by the NR9.2 T cells, a series of overlapping 20-mer peptides covering the Cta1 sequence for their ability to stimulate NR9.2 to secrete IFNγ were screened (Table 2).
Identification of the T cell antigen Cta1. An expression library of genomic sequences from C. trachomatis serovar D was inserted into a modified form of the pDEST17 vector (Invitrogen) and transformed into the Stb12 strain of E. coli (Invitrogen). Following induction of protein expression, the bacteria were fixed in 0.5% paraformaldehyde and incubated with BMMs. NR9.2 T cells were then added and after 24 h, the supernatant was tested for the level of IFNγ by ELISA (Endogen, Rockford, Ill.). To identify the reactive peptide epitope within Cta1, synthetic 20-mer peptides (MIT Biopolymers Lab, Cambridge, Mass.) were used at a concentration of 25 μM in an IFNγ ELISA (Endogen).

How did the IFNγ measured turn out when “EFLLQNTLEDSEIISIPDTM [overlapping synthetic 20-mer peptide of Cta1]” was run?
Its IFNγ measured is 0.6 (±0.2) ng.

Which IFNγ measured does the source give for “FLKECKHSPEKGIDPQELWV [overlapping synthetic 20-mer peptide of Cta1]” here?
The IFNγ measured was 0.5 (±0.4) ng.

How did the IFNγ measured turn out when “FYLNKDYTNVGPISIVQLTA [overlapping synthetic 20-mer peptide of Cta1]” was run?
Its IFNγ measured is 0.7 (±0.4) ng.

“GCANKKNRNLIGWFLAGMFF [overlapping synthetic 20-mer peptide of Cta1]” was tested. Which IFNγ measured did it give?
Its IFNγ measured is 0.5 (±0.3) ng.

For “GIFAIIFLLILPPLPSSTQD [overlapping synthetic 20-mer peptide of Cta1]”, which IFNγ measured is on record?
The IFNγ measured was 0.4 (±0.2) ng.

For “GPISIVQLTAFLKECKHSPE [overlapping synthetic 20-mer peptide of Cta1]”, which IFNγ measured is on record?
Its IFNγ measured is 0.5 (±0.3) ng.

“IGWFLAGMFFGIFAIIFLLI [overlapping synthetic 20-mer peptide of Cta1]” was tested. Which IFNγ measured did it give?
The IFNγ measured was 0.6 (±0.3) ng.

For “KGIDPQELWVWKKGMPNWEK (listed as Chlamydia trachomatis) [20-mer peptide, amino acids 133-152 of Cta1 (CT788)]”, which IFNγ measured is on record?
Its IFNγ measured is 58.0 (±14.0) ng.

“LESTSLYKKAGCANKKNRNL [overlapping synthetic 20-mer peptide of Cta1]” was tested. Which IFNγ measured did it give?
Its IFNγ measured is 0.4 (±0.2) ng.

With “LPPLPSSTQDNRSMDQQDSE [overlapping synthetic 20-mer peptide of Cta1]” as the molecule, how does the IFNγ measured read?
The IFNγ measured was 0.6 (±0.2) ng.

How did the IFNγ measured turn out when “NQIAIDTEKWFYLNKDYTNV [overlapping synthetic 20-mer peptide of Cta1]” was run?
The IFNγ measured was 0.5 (±0.2) ng.

Which IFNγ measured does the source give for “NRSMDQQDSEEFLLQNTLED [overlapping synthetic 20-mer peptide of Cta1]” here?
Its IFNγ measured is 0.6 (±0.3) ng.

“QSGVAGLEQLESI [C-terminal overlapping synthetic peptide of Cta1]” was tested. Which IFNγ measured did it give?
The IFNγ measured was 0.8 (±0.2) ng.

For “SEIISIPDTMNQIAIDTEKW [overlapping synthetic 20-mer peptide of Cta1]”, which IFNγ measured is on record?
Its IFNγ measured is 0.6 (±0.2) ng.

For “VKDESPSFLVQSGVAGLEQL [overlapping synthetic 20-mer peptide of Cta1]”, which IFNγ measured is on record?
The IFNγ measured was 0.7 (±0.2) ng.

With “VKNIPELSGTVKDESPSFLV [overlapping synthetic 20-mer peptide of Cta1]” as the molecule, how does the IFNγ measured read?
Its IFNγ measured is 0.8 (±0.1) ng.

“WKKGMPNWEKVKNIPELSGT [overlapping synthetic 20-mer peptide of Cta1]” was tested. Which IFNγ measured did it give?
Its IFNγ measured is 1.4 (±0.2) ng.

same assay, conditions: overlapping 20-mer peptides, listed as Cta1133-152

“KGIDPQELWVWKKGMPNWEK (listed as Chlamydia trachomatis) [20-mer peptide, amino acids 133-152 of Cta1 (CT788)]” was tested. Which “ability to stimulate NR9.2 to secrete IFNγ (in words)” value did it give?
The value was “induced NR9.2 to secrete significant levels of IFNγ; also recorded: stimulated NR9.2 to secrete significant levels of IFNγ”.

system: spleen cells from NR1 TCR transgenic mice; assay: Proliferation of NR1 transgenic splenocytes in response to peptide ([3H]thymidine incorporation); format: cell-based, mouse; conditions: spleen cells from naïve NR1 mice
Description: FIG. 16B is a graph showing proliferation of splenocytes from NR1 transgenic or non-transgenic mice in response to the indicated concentrations of Cta1133-152 (SEQ ID NO:2). Proliferation was measured by [^3H]thymidine incorporation into cells.
To determine whether the NR1 transgenic T cells were specific and responsive to Cta1, we tested the proliferation of transgenic spleen cells in response to Cta1133-152 (see FIG. 14; SEQ ID NO:2).

How did the “proliferation of NR1 spleen cells in response to peptide” value turn out when “KGIDPQELWVWKKGMPNWEK (listed as Chlamydia trachomatis) [20-mer peptide, amino acids 133-152 of Cta1 (CT788)]” was run?
The value was “strong proliferative response”.

With “OVA323-336: control peptide from ovalbumin (KISQAVHAAHAEIN) [reference compound]” as the molecule, how does the “proliferation of NR1 spleen cells in response to peptide” value read?
Its value is “did not proliferate”.

system: spleen cells from NR1 TCR transgenic mice; assay: IFNγ secretion by NR1 spleen cells in response to peptide; format: cell-based, mouse; conditions: data not shown

“KGIDPQELWVWKKGMPNWEK (listed as Chlamydia trachomatis) [20-mer peptide, amino acids 133-152 of Cta1 (CT788)]” was tested. Which “IFNγ secretion by NR1 spleen cells in response to peptide” value did it give?
The value was “secreted high levels of IFNγ”.
